According to PMC9116245, “New 1,2,3-triazole linked ciprofloxacin-chalcones induce DNA damage by inhibiting human topoisomerase I& II and tubulin polymerization” (Journal of Enzyme Inhibition and Medicinal Chemistry, 2022):

Key:
CCRF-CEM = test: NCI one-dose screen; format: cell-based; details: Homo sapiens, read-out: Growth Percent
Procedure: (§1) For screening of anticancer properties, all the developed compounds were chosen by the (NCI) for in-vitro antitumor evaluation. The assay was carried out using 59 human cancer cell lines obtained from nine tumour subpanels (breast, ovarian, melanoma, leukaemia, renal, CNS, lung, prostate, and colon cancer cell lines). Compounds were assessed at a 10 µM concentration. […] Also, hybrids 4a, 4b, 4e, 4i and 4j produced significant anti-proliferative effect in several cancer cells, particularly in leukaemia (RPMI-8226) and colon (HCT116) cells with growth percent of 47.87, −14.59, −24.56, −24.42, −15.84, −9.74, −53.36, −10.26, −31.29, and −39.51%, respectively.
(§2) The method description for NCI anticancer screening is provided in detail in the standard NCI-60 testing protocol.

NCI-H460 = test: NCI one-dose screen; format: cell-based; details: Homo sapiens; NCI-H460, 10 µM; read-out: Growth Percent
Procedure: as §1, §2

MOLT-4 = test: NCI one-dose screen; format: cell-based; details: Homo sapiens; MOLT-4, 10 µM; read-out: Growth Percent
Procedure: as §1, §2

SK-MEL-28 = test: NCI one-dose screen; format: cell-based; details: Homo sapiens; SK-MEL-28, 10 µM; read-out: Growth Percent
Procedure: as §1, §2

CAKI-1 = test: NCI one-dose screen; format: cell-based; details: Homo sapiens; CAKI-1, 10 µM; read-out: Growth Percent
Procedure: as §1, §2

SK-MEL-5 = test: NCI one-dose screen; format: cell-based; details: Homo sapiens; SK-MEL-5, 10 µM; read-out: Growth Percent
Procedure: as §1, §2

HOP-62 = test: NCI one-dose screen; format: cell-based; details: Homo sapiens; HOP-62, 10 µM; read-out: Growth Percent
Procedure: as §1, §2

A549/ATCC = test: NCI one-dose screen; format: cell-based; details: Homo sapiens, read-out: Growth Percent
Procedure: as §1, §2

SF-539 = test: NCI one-dose screen; format: cell-based; details: Homo sapiens; SF-539, 10 µM; read-out: Growth Percent
Procedure: as §1, §2

SR = test: NCI one-dose screen; format: cell-based; details: Homo sapiens, read-out: Growth Percent
Procedure: as §1, §2

BT-549 = test: NCI one-dose screen; format: cell-based; details: Homo sapiens; BT-549, 10 µM; read-out: Growth Percent
Procedure: as §1, §2

SNB-75 = test: NCI one-dose screen; format: cell-based; details: Homo sapiens; SNB-75, 10 µM; read-out: Growth Percent
Procedure: as §1, §2

MALME-3M = test: NCI one-dose screen; format: cell-based; details: Homo sapiens, read-out: Growth Percent
Procedure: as §1, §2

HCT-15 = test: NCI one-dose screen; format: cell-based; details: Homo sapiens; HCT-15, 10 µM; read-out: Growth Percent
Procedure: as §1, §2

IGROV1 = test: NCI one-dose screen; format: cell-based; details: Homo sapiens, IGROV-1; IGROV1, 10 µM; read-out: Growth Percent
Procedure: as §1, §2

NCI/ADR-RES = test: NCI one-dose screen; format: cell-based; details: Homo sapiens, read-out: Growth Percent
Procedure: as §1, §2

ACHN = test: NCI one-dose screen; format: cell-based; details: Homo sapiens, read-out: Growth Percent
Procedure: as §1, §2

MDA-MB-231/ATCC = test: NCI one-dose screen; format: cell-based; details: Homo sapiens, read-out: Growth Percent
Procedure: as §1, §2

KM12 = test: NCI one-dose screen; format: cell-based; details: Homo sapiens; KM12, 10 µM; read-out: Growth Percent
Procedure: as §1, §2

NCI-H226 = test: NCI one-dose screen; format: cell-based; details: Homo sapiens; NCI-H226, 10 µM; read-out: Growth Percent
Procedure: as §1, §2

SK-MEL-2 = test: NCI one-dose screen; format: cell-based; details: Homo sapiens; SK-MEL-2, 10 µM; read-out: Growth Percent
Procedure: as §1, §2

SF-295 = test: NCI one-dose screen; format: cell-based; details: Homo sapiens; SF-295, 10 µM; read-out: Growth Percent
Procedure: as §1, §2

UO-31 = test: NCI one-dose screen; format: cell-based; details: Homo sapiens; UO-31, 10 µM; read-out: Growth Percent
Procedure: as §1, §2

M14 = test: NCI one-dose screen; format: cell-based; details: Homo sapiens; M14, 10 µM; read-out: Growth Percent
Procedure: as §1, §2

SK-OV-3 = test: NCI one-dose screen; format: cell-based; details: Homo sapiens; SK-OV-3, 10 µM; read-out: Growth Percent
Procedure: as §1, §2

HOP-92 = test: NCI one-dose screen; format: cell-based; details: Homo sapiens; HOP-92, 10 µM; read-out: Growth Percent
Procedure: as §1, §2

OVCAR-3 = test: NCI one-dose screen; format: cell-based; details: Homo sapiens; OVCAR-3, 10 µM; read-out: Growth Percent
Procedure: as §1, §2

TK-10 = test: NCI one-dose screen; format: cell-based; details: Homo sapiens; TK-10, 10 µM; read-out: Growth Percent
Procedure: as §1, §2

MCF7 = test: NCI one-dose screen; format: cell-based; details: Homo sapiens; MCF7, 10 µM; read-out: Growth Percent
Procedure: as §1, §2

T-47D = test: NCI one-dose screen; format: cell-based; details: Homo sapiens, T47D, read-out: Growth Percent
Procedure: as §1, §2

[1] = system: 59 human cancer cell lines; test: NCI one-dose screen, whole panel; format: cell-based; details: Homo sapiens, mean over the panel, read-out: Mean Growth Percent
Procedure: as §1, §2

HCT116 = test: MTT assay; format: cell-based; details: Homo sapiens, HCT-116, 24 h incubation
Procedure: (§3) The proliferation of colorectal cancer cells (HCT116, HT29 and Caco-2) was assessed using MTT assay as previously reported. Cells were treated with increasing concentrations of 1, 5, 10, 20, 40, 80 or 100 µM of CP hybrids 4a-j, doxorubicin, or DMSO. See Supplementary Appendix A.

Caco-2 = test: MTT assay; format: cell-based; details: Homo sapiens; Caco-2, MTT assay, 24 h incubation
Procedure: as §3

HT-29 = test: MTT assay; format: cell-based; details: Homo sapiens; HT-29, MTT assay, 24 h incubation
Procedure: as §3

RPMI-8226 = test: NCI one-dose screen; format: cell-based, human; details: RPMI-8226, 10 µM; for activity at 10 µM: Homo sapiens, read-out: Growth Percent
Procedure: as §1, §2

HCT-116 = test: NCI one-dose screen; format: cell-based, human; details: HCT-116, 10 µM; for activity at 10 µM: Homo sapiens, read-out: Growth Percent
Procedure: as §1, §2

Row | Structure (SMILES) | activity at 10 µM (CCRF-CEM) [%] | activity at 10 µM (NCI-H460) [%] | activity at 10 µM (MOLT-4) [%] | activity at 10 µM (SK-MEL-28) [%] | activity at 10 µM (CAKI-1) [%] | activity at 10 µM (SK-MEL-5) [%] | activity at 10 µM (HOP-62) [%] | activity at 10 µM (A549/ATCC) [%] | activity at 10 µM (SF-539) [%] | activity at 10 µM (SR) [%] | activity at 10 µM (BT-549) [%] | activity at 10 µM (SNB-75) [%] | activity at 10 µM (MALME-3M) [%] | activity at 10 µM (HCT-15) [%] | activity at 10 µM (IGROV1) [%] | activity at 10 µM (NCI/ADR-RES) [%] | activity at 10 µM (ACHN) [%] | activity at 10 µM (MDA-MB-231/ATCC) [%] | activity at 10 µM (KM12) [%] | activity at 10 µM (NCI-H226) [%] | also measured
1 | Cc1ccc(/C=C/C(=O)c2ccc(-n3cc(CN4CCN(c5cc6c(cc5F)c(=O)c(C(=O)O)cn6C5CC5)CC4)nn3)cc2)cc1 [Compound 4f, (E)-1-cyclopropyl-6-fluoro-4-oxo-7-(4-((1-(4-(3-(p-tolyl)acryloyl)phenyl)-1H-1,2,3-triazol-4-yl)methyl)piperazin-1-yl)-1,4-dihydroquinoline-3-carboxylic acid] | 56.3 | 85.8 | 67.7 | 107 | 64.4 | 91.1 | 87.4 | 87.3 | 83 | 16.6 | 81.3 | 93.6 | 102 | 95 | 74.2 | 102 | 93.7 | 80.1 | 88.8 | 84.5 | activity at 10 µM (SK-MEL-2): 97.2%; activity at 10 µM (SF-295): 87.6%; activity at 10 µM (UO-31): 65.7%; activity at 10 µM (M14): 87%; activity at 10 µM (SK-OV-3): 78.4%; activity at 10 µM (HOP-92): 84.6%; activity at 10 µM (OVCAR-3): 95.9%; activity at 10 µM (TK-10): 91.4%; activity at 10 µM (MCF7): 64.8%; activity at 10 µM (T-47D): 80%; activity at 10 µM [1]: 80.3%; IC50 (HCT116): 7.22 ± 1.45 µM; IC50 (Caco-2): 10.1 ± 2.82 µM; IC50 (HT-29): 14.7 ± 1.81 µM; activity at 10 µM (RPMI-8226): 34.2%; activity at 10 µM (HCT-116): 7.82%
2 | COc1ccc(/C=C/C(=O)c2ccc(-n3cc(CN4CCN(c5cc6c(cc5F)c(=O)c(C(=O)O)cn6C5CC5)CC4)nn3)cc2)cc1OC [Compound 4i, (E)-1-cyclopropyl-7-(4-((1-(4-(3–(3,4-dimethoxyphenyl)acryloyl)phenyl)-1H-1,2,3-triazol-4-yl)methyl)piperazin-1-yl)-6-fluoro-4-oxo-1,4-dihydroquinoline-3-carboxylic acid] | 44 | 77.9 | 64.2 | 79.8 | 67.8 | 69 | 75.6 | 66.1 | 50.8 | -2.25 | 65.8 | 58.3 | 66.2 | 80.6 | 26.6 | 90.7 | 85 | 67.2 | 42.6 | 67.3 | activity at 10 µM (SK-MEL-2): 97%; activity at 10 µM (SF-295): 94.9%; activity at 10 µM (UO-31): 54.9%; activity at 10 µM (M14): 59%; activity at 10 µM (SK-OV-3): 76.9%; activity at 10 µM (HOP-92): 66.5%; activity at 10 µM (OVCAR-3): 39.3%; activity at 10 µM (TK-10): 104%; activity at 10 µM (MCF7): 13.2%; activity at 10 µM (T-47D): 78.6%; activity at 10 µM [1]: 59.5%; IC50 (HCT116): 4.87 ± 0.78 µM; IC50 (Caco-2): 11.3 ± 2.39 µM; IC50 (HT-29): 18.6 ± 3.19 µM; activity at 10 µM (RPMI-8226): -24.4%; Growth Percent (RPMI-8226): -24.42%; Growth Percent (HCT-116): -31.29%; activity at 10 µM (HCT-116): -31.3%
